According to ChEMBL document CHEMBL4616726, “Optimization of the Linker Domain in a Dimeric Compound that Degrades an r(CUG) Repeat Expansion in Cells” (J Med Chem, 2020):
The source made the active and inactive calls. No cut-off for these calls is given here.

Legend:
[1] = test system: r(CUG) repeat expansion; experiment: Induction of 5'-biotinylated r(CUG)12 RNA repeat (unknown origin) degradation assessed as disruption of r(CUG)12-MBNL1 complex formation incubated for 15 mins by TR-FRET assay; format: nucleic-acid assay
[2] = biological target: r(CUG) repeat expansion; experiment: Binding affinity to r(CUG)8 RNA repeat (unknown origin) by fluorescence based assay; format: nucleic-acid assay
[3] = test system: r(CUG) repeat expansion; experiment: Induction of r(CUG)exp RNA repeat in human DM1-patient derived myotubes assessed as reduction in number of foci containing r(CUG)exp-MBNL1 foci at 5 uM by RNA fluorescence in situ hybridization assay; format: nucleic-acid assay
[4] = biological target: r(CUG) repeat expansion; experiment: Binding affinity to r(CUG)12 RNA repeat (unknown origin) by fluorescence based assay; format: nucleic-acid assay
[5] = Drug localization in nucleus of human DM1-patient derived myotubes by live-cell fluorescence microscopy; format: ADME, subcellular
[6] = test system: r(CUG) repeat expansion; experiment: Induction of r(CUG)exp RNA repeat in human DM1-patient derived myotubes assessed as improvement in MBNL1 exon 5 splicing defect at 5 uM by RT-qPCR analysis relative to control; format: nucleic-acid assay
[7] = test system: r(CUG) repeat expansion; experiment: Induction of r(CUG)exp RNA repeat in human DM1-patient derived myotubes assessed as reduction in number of foci containing r(CUG)exp-MBNL1 foci at 5 uM by immunofluorescence assay; format: nucleic-acid assay
[8] = Drug uptake in human DM1-patient derived myotubes by fluorescence based assay; format: ADME; conditions: in vitro
[9] = test system: r(CUG) repeat expansion; experiment: Induction of DMPK mRNA 3'-UTR r(CUG)1300 repeat degradation in human DM1 patient-derived myotubes at 5 uM by RT-qPCR analysis relative to control; format: nucleic-acid assay
[10] = test system: r(CUG) repeat expansion; experiment: Induction of r(CUG)exp RNA repeat in human DM1-patient derived myotubes assessed as improvement in MBNL1 exon 5 splicing defect at 0.2 to 5 uM by RT-qPCR analysis relative to control; format: nucleic-acid assay
[11] = test system: r(CUG) repeat expansion; experiment: Induction of DMPK mRNA 3'-UTR r(CUG)1300 repeat degradation in human DM1 patient-derived myotubes at 0.2 to 5 uM by RT-qPCR analysis relative to control; format: nucleic-acid assay
[12] = test system: r(CUG) repeat expansion; experiment: Induction of r(CUG)10 RNA repeat (unknown origin) degradation at 2.5 uM relative to control; format: nucleic-acid assay
[13] = test system: r(CUG) repeat expansion; experiment: Induction of LRP8 r(CUG)11 RNA repeat degradation in human DM1 patient myotubes at 1 uM by RT-qPCR analysis relative to control; format: nucleic-acid assay
[14] = test system: r(CUG) repeat expansion; experiment: Induction of r(CUG)exp RNA repeat in human DM1-patient derived myotubes assessed as reduction in number of foci containing r(CUG)exp-MBNL1 foci at 1 uM by RNA fluorescence in situ hybridization assay; format: nucleic-acid assay
[15] = test system: r(CUG) repeat expansion; experiment: Induction of wild-type DMPK r(CUG)20 RNA repeat degradation in healthy human myotubes at 5 uM by RT-qPCR analysis relative to control; format: nucleic-acid assay
[16] = test system: r(CUG) repeat expansion; experiment: Induction of SCUBE2 r(CUG)7 RNA repeat degradation in human DM1 patient myotubes at 1 uM by RT-qPCR analysis relative to control; format: nucleic-acid assay
[17] = test system: r(CUG) repeat expansion; experiment: Induction of r(CUG)exp RNA repeat in human DM1-patient derived myotubes assessed as improvement in MBNL1 exon 5 splicing defect at 1 uM by RT-qPCR analysis relative to control; format: nucleic-acid assay
[18] = test system: r(CUG) repeat expansion; experiment: Induction of wild-type DMPK r(CUG)20 RNA repeat degradation in human DM1 patient myotubes at 1 uM by RT-qPCR analysis relative to control; format: nucleic-acid assay
[19] = species: Homo sapiens; experiment: Effect on MBNL1 exon 5 splicing patterns in wild type human myotubes at 5 uM by RT-qPCR analysis relative to control; format: functional
[20] = test system: r(CUG) repeat expansion; experiment: Induction of SORCS2 r(CUG)7 RNA repeat degradation in human DM1 patient myotubes at 1 uM by RT-qPCR analysis relative to control; format: nucleic-acid assay
[21] = species: Homo sapiens; experiment: Effect on alternative splicing of MAP4K4 exon 22a in human DM1-patient derived myotubes at 5 uM by RT-qPCR analysis relative to control; format: functional
[22] = species: Homo sapiens; experiment: Induction of DNA damage in human DM1-patient derived myotubes at 1 uM assessed as induction of DNA double strand breaks by measuring gamma-H2AX foci formation by immunofluorescence assay relative to control; format: functional
[23] = test system: r(CUG) repeat expansion; experiment: Induction of MAP3K4 r(CUG)11 RNA repeat degradation in human DM1 patient myotubes at 1 uM by RT-qPCR analysis relative to control; format: nucleic-acid assay
[24] = test system: r(CUG) repeat expansion; experiment: Induction of CASK r(CUG)16 RNA repeat degradation in human DM1 patient myotubes at 1 uM by RT-qPCR analysis relative to control; format: nucleic-acid assay
[25] = test system: r(CUG) repeat expansion; experiment: Induction of DMPK mRNA 3'-UTR r(CUG)1300 repeat degradation in human DM1 patient-derived myotubes at 1 uM by RT-qPCR analysis relative to control; format: nucleic-acid assay
[26] = test system: r(CUG) repeat expansion; experiment: Induction of r(CUG)10 RNA repeat (unknown origin) degradation at 0.3 to 2.5 uM; format: nucleic-acid assay
[27] = test system: r(CUG) repeat expansion; experiment: Induction of r(CUG)exp RNA repeat in human DM1-patient derived myotubes assessed as improvement in MBNL1 exon 5 splicing defect by RT-qPCR analysis; format: nucleic-acid assay
[28] = Drug localization in cytoplasm of human DM1-patient derived myotubes by live-cell fluorescence microscopy; format: ADME, subcellular

| SMILES | Activity [1] | EC50 [2] [nM] | Activity [3] | EC50 [4] [nM] | Drug uptake [5] | Activity [6] [%] | Activity [7] | Drug uptake [8] | Activity [9] [%] | Activity [12] | further results |
| --- | --- | --- | --- | --- | --- | --- | --- | --- | --- | --- | --- |
| CN1CCN(c2ccc3[nH]c(-c4ccc5[nH]c(-c6cccc(OCCCC(=O)N(C)CCCCN(CC(N)=O)C(=O)[C@@H]7CCCN7C(=O)[C@@H]7CCCN7C(=O)[C@@H]7CCCN7C(=O)[C@@H]7CCCN7C(=O)[C@@H]7CCCN7C(=O)CCCOc7cccc(-c8nc9cc(-c%10nc%11cc(N%12CCN(C)CC%12)ccc%11[nH]%10)ccc9[nH]8)c7)c6)nc5c4)nc3c2)CC1 | Active | – | – | – | – | – | – | – | – | – | – |
| C[C@@H](C(=O)N(C)[C@@H](C)C(=O)N(C)[C@@H](C)C(=O)N(C)[C@@H](C)C(=O)N(CCCCN(C)C(=O)CCCOc1cccc(-c2nc3cc(-c4nc5cc(N6CCN(C)CC6)ccc5[nH]4)ccc3[nH]2)c1)CC(N)=O)N(C)C(=O)CCCOc1cccc(-c2nc3ccc(-c4nc5ccc(N6CCN(C)CC6)cc5[nH]4)cc3[nH]2)c1 | Active | > 10000 | Active | 280 | Active | 30 | Active | Active | – | – | – |
| CC(=O)O[C@H]1[C@H](O)[C@H](O[C@@H]2[C@H](O[C@H](c3cnc[nH]3)[C@@H](NC(=O)c3nc([C@@H](CC(N)=O)NC[C@@H](N)C(N)=O)nc(N)c3C)C(=O)N[C@@H](C)[C@H](O)[C@@H](C)C(=O)N[C@H](C(=O)NCCc3nc(-c4nc(C(=O)NCCCNCCCCNC(=O)CCCCCCC(=O)N(CCN(C)C(=O)CCCOc5cccc(-c6nc7ccc(-c8nc9ccc(N%10CCN(C)CC%10)cc9[nH]8)cc7[nH]6)c5)CC(=O)N(C)[C@@H](C)C(=O)N(C)[C@@H](C)C(=O)N(C)[C@@H](C)C(=O)N(CCCCN(C)C(=O)CCCOc5cccc(-c6nc7ccc(-c8nc9ccc(N%10CCN(C)CC%10)cc9[nH]8)cc7[nH]6)c5)CC(N)=O)cs4)cs3)[C@H](C)O)O[C@@H](CO)[C@H](O)[C@H]2O)O[C@@H](CO)[C@@H]1O | – | – | – | – | – | – | – | – | 30 | – | – |
| CC(=O)N(C)CCCCN(CC(=O)NCCCCNCCCNC(=O)c1csc(-c2csc(CCNC(=O)[C@@H](NC(=O)[C@H](C)[C@@H](O)[C@H](C)NC(=O)[C@H](NC(=O)c3nc([C@@H](CC(N)=O)NC[C@@H](N)C(N)=O)nc(N)c3C)[C@H](O[C@@H]3O[C@@H](CO)[C@@H](O)[C@@H](O)[C@@H]3O[C@H]3O[C@H](CO)[C@@H](O)[C@H](OC(N)=O)[C@H]3O)c3cnc[nH]3)[C@H](C)O)n2)n1)C(=O)[C@H]1CCCN1C(=O)[C@H]1CCCN1C(C)=O | – | – | – | – | – | – | – | – | – | inactive | Activity [10]: inactive; Activity [11]: inactive |
| Cc1c(N)nc([C@@H](CC(N)=O)NC[C@@H](N)C(N)=O)nc1C(=O)N[C@@H](C(=O)N[C@@H](C)[C@H](O)[C@@H](C)C(=O)N[C@H](C(=O)NCCc1nc(-c2nc(C(=O)NCCCNCCCCNC(=O)CN(CCCCN(C)C(=O)CCCOc3cccc(-c4nc5cc(-c6nc7cc(N8CCN(C)CC8)ccc7[nH]6)ccc5[nH]4)c3)C(=O)[C@H]3CCCN3C(=O)[C@H]3CCCN3C(=O)CCCOc3cccc(-c4nc5ccc(-c6nc7ccc(N8CCN(C)CC8)cc7[nH]6)cc5[nH]4)c3)cs2)cs1)[C@H](C)O)[C@H](O[C@@H]1O[C@@H](CO)[C@@H](O)[C@@H](O)[C@@H]1O[C@H]1O[C@H](CO)[C@@H](O)[C@H](OC(N)=O)[C@H]1O)c1cnc[nH]1 | – | > 10000 | – | 280 | – | 50 | – | Active | 45 | 20% | Activity [13]: inactive; Activity [14]: Active; Activity [15]: inactive; Activity [16]: inactive; Activity [17]: 30%; Activity [18]: inactive; Activity [19]: inactive; Activity [20]: inactive; Activity [21]: inactive; Activity [22]: inactive; Activity [23]: inactive; Activity [24]: inactive; Activity [25]: Active; Activity [26]: Dose-dependent effect |
| CN1CCN(c2ccc3[nH]c(-c4ccc5[nH]c(-c6cccc(OCCCC(=O)N(C)CCCCN(CC(N)=O)C(=O)[C@@H]7CCCN7C(=O)[C@@H]7CCCN7C(=O)CCCOc7cccc(-c8nc9ccc(-c%10nc%11ccc(N%12CCN(C)CC%12)cc%11[nH]%10)cc9[nH]8)c7)c6)nc5c4)nc3c2)CC1 | – | > 10000 | Active | 150 | Active | 30 | Active | Active | – | – | Activity [27]: Dose-dependent effect; IC50 [1]: 5300 nM; Drug uptake [28]: Active |
